Patent US20210069295A1, “GALECTINS CONTROL MTOR IN RESPONSE TO ENDOMEMBRANE DAMAGE AND PROVIDE A MECHANISM AND TARGET FOR THE TREATMENT OF AUTOPHAGY-RELATED DISEASES” (STC. UNM, priority 2017, published 2021)
Peptide text beside a SMILES is read from it.

Test system: Gal8 and Gal9
Test: Galectin puncta formation by high-content microscopy in HeLa cells
Assay type: cell-based
Conditions: HeLa cells overexpressing GFP-Gal8 or GFP-Gal9, 100 μM, 1 h full medium
Protocol: (A) Analysis of the puncta formation of galectins in response to GPN. HeLa cells overexpressing YFP-fused with the indicated galectins were treated with 100 μM GPN or without (Ctrl) in full medium for 1 h and galectin puncta were quantified by HC. […] White masks, algorithm defined cell boundaries (primary objects); green masks, computer-identified galectins puncta (target objects). Data, means±SEM, n≥3 independent experiments (500 primary objects counted per well; ≥5 wells/sample per each experiment); *p<0.05, **p<0.01, † p≥0.05, ANOVA. (B) Immunoprecipitation analysis of the interactions between galectins and mTOR or RagA GTPase. HEK293T cells overexpressing FLAG-tagged galectins were subjected to anti-FLAG immunoprecipitation followed by immunoblotting for endogenous mTOR or RagA. (C) Immunoprecipitation analysis of interactions between Gal8 and mTOR protein complexes in response to GPN treatment. […] Biotinylated proteins from HEK293T cell expressing APEX2-vector or APEX2-Gal8, after GPN and biotin phenol (BP) treatment were affinity-enriched by binding to streptavidin-beads, and samples were analyzed by immunoblotting analysis for endogenous RagA, p14, mTOR or Raptor. […]
(A) HC analysis of the puncta of galectins in response to chloroquine, Bafilomycin A1 and GPN. HeLa cells overexpressing GFP-Gal8 or GFP-Gal9 were treated with 100 μM chloroquine (CQ), […] (BAF) or 100 μM GPN in full medium for 1 h, and the puncta of GFP-Gal8 or GFP-Gal9 were quantified by HC. […] Data, means±SEM, n≥3 independent experiments (500 primary objects counted per well; ≥5 wells/sample per each experiment), † p≥0.05, **p<0.01, ANOVA. […] HeLa cells expressing GFP-Gal8 were treated with 100 μM GPN in full medium for 1 h, and the overlap between GFP-Gal8 and LAMP2 were quantified by HC. […] Data, means±SEM, n≥3 independent experiments (500 primary objects counted per well; ≥5 wells/sample per each experiment), **p<0.01, ANOVA. […]

Compound: NCC(=O)N[C@@H](Cc1ccccc1)C(=O)Nc1ccc2ccccc2c1 [GPN, glycyl-L-phenylalanine 2-naphththylamide] (HELM PEPTIDE1{G.F.[c1ccc2cc(N[*:1])ccc2c1]}$$$$V2.0)
- Gal8 and Gal9 puncta formation: formed puncta
